This note sets out measurements from US20260078108A1, “SOLID FORMS OF A ROCK INHIBITOR” (REDX PHARMA PLC, priority 2022, published 2026).

Molecules are shown by their SMILES.

One experiment concerns the target PKCtheta (Homo sapiens, UniProt Q04759). Put plainly: Kinase panel 33P-ATP filter assay, PKCtheta. The class given is biochemical. The conditions noted are these: HCl salt tested; ATP Conc. 30 μM (Km); read-out: Compound IC50 (nM) PKCtheta. The procedure: (§1) The HCl salts of S enantiomer and the R enantiomer of compound A were tested against a panel of kinases.
(§2) Compounds were received as powder and resuspended to 10 mM DMSO stock. Compounds were tested in 10-dose IC50 mode with a 3-fold serial dilution starting at 10 μM. Control compound, staurosporine, was tested in 10-dose IC50 mode with 4-fold serial dilution starting at 20 μM.
(§3) Reaction Conditions: Buffer Conditions: 20 mM HEPES ((4-(2-hydroxyethyl)-1-piperazineethanesulfonic acid; pH 7.5), 10 mM MgCl2, 1 mM EGTA (Ethyleneglycol-bis(p-aminoethyl)-N,N,N′,N′-tetraacetic Acid), 0.01% Brij35, 0.02 mg/ml BSA (Bovine serum albumin), 0.1 mM Na3VO4, 2 mM DTT (Dithiothreitol), 1% DMSO. Reaction Procedure: 1. Prepare indicated substrate in freshly prepared reaction buffer. 2. Deliver required cofactors to the substrate solution above. 3. Deliver indicated kinase into the substrate solution and mix gently. 4. Deliver compounds in DMSO into the kinase reaction mixture utilizing acoustic technology (Echo550). 5. Deliver ^33P-ATP (specific activity 0.01 μCi/μl final) into the reaction mixture to initiate the reaction. 6. Incubate kinase reaction for 120 minutes at room temperature. 7. […] Data Analysis: Kinase activity data were expressed as the percent remaining kinase activity in test samples compared to vehicle (dimethyl sulfoxide) reactions. […]

The target in the next experiment is PKN1/PRK1 (Homo sapiens, UniProt Q16512). Put plainly: Kinase panel 33P-ATP filter assay, PKN1/PRK1. The conditions noted are these: HCl salt tested; ATP Conc. 15 μM (Km); read-out: Compound IC50 (nM) PKN1/PRK1. The class given is biochemical. As for the experimental part:
as §1, §2, §3

The next experiment concerns the target T1, M2 (h) (Homo sapiens, UniProt P08172).
T1 construct: expressed in transfected cells; host or cells: CHO cells
T1 sequence (P08172 1-466): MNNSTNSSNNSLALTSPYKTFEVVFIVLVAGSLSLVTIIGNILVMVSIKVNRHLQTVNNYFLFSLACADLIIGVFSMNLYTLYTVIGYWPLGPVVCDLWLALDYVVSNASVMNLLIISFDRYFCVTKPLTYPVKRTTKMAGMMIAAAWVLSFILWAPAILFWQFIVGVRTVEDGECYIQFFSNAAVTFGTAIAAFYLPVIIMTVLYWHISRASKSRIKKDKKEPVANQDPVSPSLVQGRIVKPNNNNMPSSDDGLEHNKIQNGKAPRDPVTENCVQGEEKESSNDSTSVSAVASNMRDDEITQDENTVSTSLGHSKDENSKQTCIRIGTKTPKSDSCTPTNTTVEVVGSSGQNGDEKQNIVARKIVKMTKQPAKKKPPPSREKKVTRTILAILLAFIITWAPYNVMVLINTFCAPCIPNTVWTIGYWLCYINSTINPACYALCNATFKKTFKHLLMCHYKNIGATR
The experiment in a line: CEREP panel M2 (h) agonist effect, cAMP HTRF. The class given is cell-based. The conditions noted are these: HCl salt tested, CHO cells. The text has this:
(§4) The use of in vitro pharmacological screening against a diverse range of targets (receptors, ion channels, enzymes and transporters) is used to identify undesirable off-target activity that may cause adverse drug reactions in humans. Screening panels (e.g. SafetyScreen44™ Panel, Eurofins) comprise a selection of off-targets linked with known issues in humans that could hinder or halt the development of drug candidates or market withdrawal if discovered after a drug is approved. The HCl salts of the S enantiomer and the R enantiomer of compound A were tested against a panel of such targets.
(§5) The tests were carried out according to the methods described in the following tables and indicated literature references.
(Time-resolved FRET reads energy transfer from a long-lived donor to a nearby acceptor.)

The target in experiment [1] is T2, μ (MOP) (h) (Homo sapiens, UniProt P35372).
T2 construct: expressed in transfected cells; host or cells: CHO cells
Put plainly: CEREP panel mu (MOP) (h) agonist effect, cAMP HTRF. It counts as cell-based. The conditions noted are these: HCl salt tested, CHO cells.
Text: as §4, §5

For experiment [2], the target named is T2, μ (MOP) (h). Put plainly: CEREP panel mu (MOP) (h) antagonist effect, cAMP HTRF. The class given is cell-based. The conditions noted are these: HCl salt tested; CHO cells, DAMGO (10 nM).
Text: as §4, §5

For orientation: EC50 means the concentration giving half of the maximal effect.

T2 sequence (P35372 whole entry): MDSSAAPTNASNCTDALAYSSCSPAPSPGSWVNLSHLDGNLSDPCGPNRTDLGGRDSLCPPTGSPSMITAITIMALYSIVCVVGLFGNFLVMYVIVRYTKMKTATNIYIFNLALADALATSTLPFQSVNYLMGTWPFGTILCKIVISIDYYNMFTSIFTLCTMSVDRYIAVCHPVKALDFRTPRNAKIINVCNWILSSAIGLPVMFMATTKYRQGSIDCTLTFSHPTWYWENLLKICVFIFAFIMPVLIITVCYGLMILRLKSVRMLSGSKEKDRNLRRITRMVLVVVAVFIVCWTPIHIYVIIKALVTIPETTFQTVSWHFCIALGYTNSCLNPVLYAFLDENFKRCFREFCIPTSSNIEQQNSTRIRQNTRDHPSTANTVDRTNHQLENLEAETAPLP
Chain of PKCtheta (Q04759 whole entry): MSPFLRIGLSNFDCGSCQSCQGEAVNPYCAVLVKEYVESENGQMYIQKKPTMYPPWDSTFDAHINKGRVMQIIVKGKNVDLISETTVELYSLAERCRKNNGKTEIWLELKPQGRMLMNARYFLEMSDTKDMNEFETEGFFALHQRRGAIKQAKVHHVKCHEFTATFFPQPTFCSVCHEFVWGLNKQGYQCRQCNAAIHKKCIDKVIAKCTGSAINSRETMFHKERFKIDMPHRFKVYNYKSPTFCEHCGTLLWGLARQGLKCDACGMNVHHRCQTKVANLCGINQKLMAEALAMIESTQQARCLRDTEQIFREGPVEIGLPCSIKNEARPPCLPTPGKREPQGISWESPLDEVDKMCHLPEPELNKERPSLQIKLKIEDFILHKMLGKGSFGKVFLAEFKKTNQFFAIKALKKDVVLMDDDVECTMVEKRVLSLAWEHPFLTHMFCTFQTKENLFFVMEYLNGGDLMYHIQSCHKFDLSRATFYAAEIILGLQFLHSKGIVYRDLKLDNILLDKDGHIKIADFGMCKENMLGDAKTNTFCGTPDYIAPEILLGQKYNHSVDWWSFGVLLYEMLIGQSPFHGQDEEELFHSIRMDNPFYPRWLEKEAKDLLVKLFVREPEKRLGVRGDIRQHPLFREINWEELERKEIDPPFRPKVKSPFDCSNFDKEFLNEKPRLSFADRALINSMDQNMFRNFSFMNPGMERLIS
Chain of PKN1/PRK1 (Q16512 whole entry): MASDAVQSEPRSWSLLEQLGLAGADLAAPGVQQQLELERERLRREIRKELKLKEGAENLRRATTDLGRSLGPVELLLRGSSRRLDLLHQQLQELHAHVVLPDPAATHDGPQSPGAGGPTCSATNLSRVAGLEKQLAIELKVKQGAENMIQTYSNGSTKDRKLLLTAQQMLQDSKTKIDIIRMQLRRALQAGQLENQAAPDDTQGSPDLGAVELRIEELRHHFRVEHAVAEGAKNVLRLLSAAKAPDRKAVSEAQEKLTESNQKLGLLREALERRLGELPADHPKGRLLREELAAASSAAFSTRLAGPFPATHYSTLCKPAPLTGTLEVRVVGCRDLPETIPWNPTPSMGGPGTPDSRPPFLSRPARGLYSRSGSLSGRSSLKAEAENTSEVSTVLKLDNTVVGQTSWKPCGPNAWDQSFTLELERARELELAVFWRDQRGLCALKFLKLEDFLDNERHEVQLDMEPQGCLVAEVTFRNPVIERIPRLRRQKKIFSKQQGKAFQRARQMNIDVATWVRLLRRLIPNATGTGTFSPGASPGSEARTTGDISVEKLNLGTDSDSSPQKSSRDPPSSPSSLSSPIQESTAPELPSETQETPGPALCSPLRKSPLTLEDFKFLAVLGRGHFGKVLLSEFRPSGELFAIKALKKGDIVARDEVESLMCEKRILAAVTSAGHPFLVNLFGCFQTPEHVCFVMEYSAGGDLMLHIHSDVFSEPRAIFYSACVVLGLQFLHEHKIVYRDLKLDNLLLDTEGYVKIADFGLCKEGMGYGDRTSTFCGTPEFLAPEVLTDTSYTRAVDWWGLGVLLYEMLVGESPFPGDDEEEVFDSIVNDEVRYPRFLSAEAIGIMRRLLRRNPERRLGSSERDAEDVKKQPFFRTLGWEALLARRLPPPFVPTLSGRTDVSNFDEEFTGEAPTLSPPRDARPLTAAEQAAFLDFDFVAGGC

With `NCc1ccc(C(=O)Nc2ccncc2F)cc1-c1cccc(C(=O)Nc2ccc(SC[C@@H]3CCOC3=O)cc2)c1` [R-enantiomer], the figures for the IC50 on PKCtheta and on PKN1/PRK1 were 4.4 nM and 7.9 nM, respectively. For the same compound, the concentration for a half-maximal effect (EC50) at M2 (h) is > 10000 nM; on μ (MOP) (h) [1], 3000 nM. Further, the “mu (MOP) (h) (antagonist effect) (IC50)” value on μ (MOP) (h) [2] was “Inactive”.
Consider `NCc1ccc(C(=O)Nc2ccncc2F)cc1-c1cccc(C(=O)Nc2ccc(SC[C@H]3CCOC3=O)cc2)c1` [S-enantiomer], for which the results for the IC50 at PKCtheta and at PKN1/PRK1 were 9.9 nM and 8.5 nM, respectively. The EC50 was 93000 nM at M2 (h) and 84000 nM on μ (MOP) (h) [1]. The “mu (MOP) (h) (antagonist effect) (IC50)” value at μ (MOP) (h) [2] is “Inactive”.
